According to patent US20230165921A1, “USE OF DANDELION AND MONOMER COMPOUNDS THEREOF FOR KILLING MITES” (SMILEBIOTEK ZHUHAI LIMITED, priority 2020, published 2023):
“Also recorded” adds a separate entry of the source.

Legend:
Demodex mites [1] = assay: Preliminary in-vitro screening of monomer compounds for effect on survival time of Demodex mites; design: species or system D. folliculorum; settings: 20° C., humidity 96%; for Survival time: in vitro, 35 µL monomer compound solution in 10% DMSO, mean ± SD; for in-vitro survival time of Demodex mites compared with the negative control group receiving 10% DMSO solution: in words
Protocol: The powders of the monomer compounds shown in Table 2 were separately dissolved in dimethyl sulfoxide (DMSO), and then diluted with sterilized double-distilled water to make the final concentration of DMSO 10%, which could not shorten the survival time of Demodex mites as per a controlled study. The negative control group received DMSO mixed with sterilized water at a final concentration of 10%.
As in Example 1, 35 µL of each solution was added to a glass slide, and the survival of the mites was observed under an optical microscope every 2 hours. During the experiment, the Demodex mites were observed by two skilled operators separately for the activities (bodies, limbs and the like) through the microscope to determine whether they were dead or not. If the two operators gave different results, the survival status was determined independently by a third skilled operator. The in-vitro culture was conducted in a climatic chamber at a temperature of 20° C. and a humidity of 96%. During the observation, the glass slides were transported in a wet box to ensure the high humidity.
In this experiment, statistical analysis was conducted using SPSS22.0 statistical software, normality test was conducted using Shapiro-Wilk test, and homogeneity of variance test was conducted using Bartlett’s test.
Effects of monomer compounds of traditional Chinese medicine on survival time of D. folliculorum The in-vitro culture of the Demodex mites was conducted in an environment at a humidity of 96% and a temperature of 20° C. The survival of the Demodex mites was observed dynamically and the survival time was recorded.

Demodex mites [2] = assay: In-vitro culture of Demodex mites with traditional Chinese medicine decoctions: survival time; design: species or system D. folliculorum; settings: 20° C., humidity 96%
Protocol: The detection of Demodex mites was performed according to the conventional method of eyelash microscopy (12,20). 3 eyelashes were collected from each eyelid, with a total of 12 eyelashes. The collected eyelashes were immediately placed on glass slides with three eyelashes on each glass slide, and the glass slides were examined under a common optical microscope for observation. Demodex mites in all periods were counted and classified according to morphology (specific standard: D. brevis with a head-to-body ratio of 1:1, and D. folliculorum with a head-to-body ratio of 1:3 to 1:4). […]
On the basis of the above detection of Demodex mites, 35 µL of the solutions was separately added to the slides, and the survival of the mites was observed every 2 hours. […] If the two operators gave different results, the survival status was determined independently by a third skilled operator. […]
60 g of dried ready-to-use forms was weighed using an electronic balance, and soaked in water with an amount of 10 times (600 mL) in a marmite overnight. […]
The in-vitro culture of the Demodex mites was conducted in an environment at a humidity of 96% and a temperature of 20° C. The survival of the Demodex mites was observed dynamically and the survival time was recorded.

Row | Structure (SMILES) | Survival time (Demodex mites [1]) | in-vitro survival time of Demodex mites compared with the negative control group receiving 10% DMSO solution (Demodex mites [1]) | Survival time (Demodex mites [2]; in vitro, 35 µL solution on slide, decoction 60 g in 100 mL, TTO and T4O 10% in sterilized water, mean ± SD) | in-vitro survival time of Demodex mites compared with the negative control (sterilized water) (Demodex mites [2]; in words)
1 | O=C(O)/C=C/c1ccc(O)c(O)c1 [Caffeic acid] | 66.45 ± 24.24 h | – | – | –
2 | COc1ccc(-c2cc(=O)c3c(O)cc(O)cc3o2)cc1O [Diosmetin] | – | significantly shorter; also recorded: can significantly shorten the survival time of the mites | – | –
3 | CC1=CCC(O)(C(C)C)CC1 (stereo not shown) [T4O, terpinen-4-ol] | – | – | 40.50 ± 13.12 h | did not show significant differences
4 | C=C1CC[C@]2(C)CC[C@]3(C)[C@H](CC[C@@H]4[C@@]5(C)CC[C@H](OC(C)=O)C(C)(C)[C@@H]5CC[C@]43C)[C@H]2[C@@H]1C [Taraxasterol acetate] | 37.91 ± 20.96 h | significantly shorter; also recorded: can significantly shorten the survival time of the mites | – | –
5 | CC1(C)CC[C@]2(C)CC=C3[C@]4(C)CC[C@H]5C(C)(C)[C@@H](O)CC[C@]5(C)[C@H]4CC[C@@]3(C)[C@@H]2C1 [Taraxerol] | – | significantly shorter; also recorded: can significantly shorten the survival time of the mites | – | –
